Data: the supplement of paper PMC10307832

How the values were obtained:
Experiment in all cases: relative viability (nuclei count vs DMSO), 5 days (fraction); higher = more cells survive
[1] = compound: CC(=O)c1c(C)c2cnc(Nc3ccc(N4CCNCC4)cn3)nc2n(C2CCCC2)c1=O [Palbociclib] + CS(=O)(=O)N1CCN(Cc2cc3nc(-c4cccc5[nH]ncc45)nc(N4CCOCC4)c3s2)CC1 [Pictilisib] (partner 1 µM)
Summary of the method: (§1)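 Lung cancer cell lines were seeded in 1536-well plates and dosed by pin tool the next day, with either a single drug or a fixed anchor-drug dose combined with five library-drug doses (not always all listed) spaced in √10 steps. Five days later, one step fixed the cells and stained their nuclei (final 0.05% Triton X-100, 1% formaldehyde, 1 ug/ml Hoechst), and nuclei were counted on 4× images. Relative viability is the nuclei count in treated wells divided by the count in vehicle wells, and each value is the median of duplicate plates.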

[2] = compound: CC(=O)c1c(C)c2cnc(Nc3ccc(N4CCNCC4)cn3)nc2n(C2CCCC2)c1=O [Palbociclib] + Cc1nc(NC(=O)N2CCC[C@H]2C(N)=O)sc1-c1ccnc(C(C)(C)C(F)(F)F)c1 [Alpelisib] (partner 2 µM)
Summary of the method: as §1

[3] = compound: CC(=O)c1c(C)c2cnc(Nc3ccc(N4CCNCC4)cn3)nc2n(C2CCCC2)c1=O [Palbociclib] + Cc1nc(Nc2ncc(C(=O)Nc3c(C)cccc3Cl)s2)cc(N2CCN(CCO)CC2)n1 [Dasatinib] (partner 0.075 µM)
Summary of the method: as §1

[4] = compound: CC(=O)c1c(C)c2cnc(Nc3ccc(N4CCNCC4)cn3)nc2n(C2CCCC2)c1=O [Palbociclib] + NC(=O)Nc1cc(-c2cccc(F)c2)sc1C(=O)N[C@H]1CCCNC1 [AZD7762] (partner 0.2 µM)
Summary of the method: as §1

| Cell Line | relative viability ([1]; first compound 0.01 µM) | relative viability ([1]; first compound 0.1 µM) | relative viability ([1]; first compound 0.3162 µM) | relative viability ([1]; first compound 1 µM) | relative viability ([2]; first compound 0.01 µM) | relative viability ([2]; first compound 0.1 µM) | relative viability ([2]; first compound 0.3162 µM) | relative viability ([2]; first compound 1 µM) | relative viability ([3]; first compound 0.01 µM) | relative viability ([3]; first compound 0.03162 µM) | relative viability ([3]; first compound 0.1 µM) | relative viability ([3]; first compound 0.3162 µM) | relative viability ([3]; first compound 1 µM) | relative viability ([4]; first compound 0.01 µM) | relative viability ([4]; first compound 0.03162 µM) | relative viability ([4]; first compound 0.1 µM) | relative viability ([4]; first compound 0.3162 µM) | relative viability ([4]; first compound 1 µM) | relative viability ([1]; first compound 0.03162 µM) | relative viability ([2]; first compound 0.03162 µM) |
| --- | --- | --- | --- | --- | --- | --- | --- | --- | --- | --- | --- | --- | --- | --- | --- | --- | --- | --- | --- | --- |
| NCI-H1355 | 0.449 | 0.23 | 0.273 | 0.241 | 0.823 | 0.797 | 0.779 | 0.501 | 0.774 | 0.587 | 0.588 | 0.569 | 0.384 | 0.672 | 0.572 | 0.733 | 0.697 | 0.571 | – | – |
| LK-2 | 0.574 | 0.365 | 0.529 | 0.501 | 1.12 | 0.75 | 1.15 | 1.3 | 0.356 | – | 0.305 | 0.301 | 0.321 | 0.472 | 0.297 | 0.374 | 0.338 | 0.303 | – | – |
| 201T | 0.68 | 0.622 | 0.525 | 0.464 | 0.995 | 0.884 | 0.974 | 0.728 | 0.54 | 0.494 | 0.579 | 0.388 | 0.324 | 0.573 | 0.475 | 0.905 | 0.751 | 0.633 | 0.61 | 1.04 |
| LCLC-97TM1 | 0.199 | 0.122 | 0.157 | 0.101 | 0.291 | 0.189 | 0.209 | 0.189 | 0.694 | 0.572 | 0.738 | 0.585 | 0.329 | 0.391 | – | 0.252 | 0.199 | 0.152 | – | – |
| BEN | 0.612 | 0.402 | 0.411 | 0.3 | 1.04 | 0.634 | 0.834 | 0.499 | 0.39 | 0.324 | 0.229 | 0.235 | 0.208 | 0.826 | 0.604 | 0.583 | 0.567 | 0.388 | 0.425 | 0.847 |
| HCC-78 | 0.206 | 0.19 | 0.251 | 0.154 | 0.305 | 0.217 | 0.263 | 0.216 | 0.348 | 0.361 | 0.348 | 0.26 | 0.215 | 0.731 | 0.623 | 0.67 | 0.525 | 0.685 | 0.202 | 0.242 |
| NCI-H2085 | 0.517 | 0.398 | 0.361 | 0.318 | 1.03 | 0.923 | 0.84 | 0.616 | 0.233 | 0.282 | 0.209 | 0.252 | 0.191 | 1.06 | 0.912 | 0.942 | 0.76 | 0.473 | 0.427 | 0.891 |
| LOU-NH91 | 0.547 | 0.484 | 0.465 | 0.446 | 0.753 | 0.545 | 0.576 | 0.55 | 0.66 | 0.425 | 0.429 | 0.434 | 0.41 | 0.753 | 0.679 | 0.62 | 0.572 | 0.528 | 0.479 | 0.609 |
| NCI-H1734 | 0.39 | 0.331 | 0.344 | 0.235 | 0.637 | 0.539 | 0.537 | 0.374 | 0.461 | 0.365 | 0.393 | 0.296 | 0.254 | 0.53 | 0.417 | 0.454 | 0.453 | 0.356 | 0.387 | 0.588 |
| NCI-H1792 | 0.298 | 0.222 | 0.229 | 0.15 | 0.679 | 0.543 | 0.637 | 0.408 | 0.848 | 0.727 | 0.63 | 0.551 | 0.468 | 0.663 | 0.559 | 0.462 | 0.576 | 0.185 | 0.255 | 0.603 |
| HARA | 0.406 | 0.225 | 0.202 | 0.169 | 0.82 | 0.557 | 0.405 | 0.31 | 0.27 | – | 0.24 | 0.193 | 0.149 | 0.379 | 0.137 | 0.244 | 0.364 | 0.242 | 0.347 | 0.718 |
| NCI-H2087 | 0.83 | 0.478 | 0.498 | 0.393 | 1.18 | 0.824 | 0.68 | 0.531 | 0.784 | – | 0.658 | 0.385 | 0.328 | 1.18 | 1.16 | 1.03 | 0.902 | 0.641 | 0.669 | 0.962 |
| CAL-12T | 0.471 | – | 0.263 | 0.281 | 1.11 | 0.84 | 0.652 | 0.603 | 0.486 | 0.383 | 0.248 | 0.273 | 0.22 | 0.646 | 0.569 | 0.516 | 0.51 | 0.409 | – | 1.05 |
| NCI-H1651 | 0.573 | 0.499 | 0.529 | 0.355 | 1.03 | 0.875 | 0.883 | 0.624 | 0.394 | 0.366 | 0.352 | 0.385 | 0.308 | 0.484 | 0.394 | 0.474 | 0.464 | 0.425 | 0.524 | 0.823 |
| EMC-BAC-2 | 0.553 | 0.442 | 0.414 | 0.345 | 0.738 | 0.602 | 0.665 | 0.508 | 0.3 | 0.258 | 0.302 | 0.32 | 0.256 | 1.13 | 0.935 | 0.955 | 1.02 | 0.713 | 0.445 | 0.646 |
| NCI-H1993 | 0.858 | 0.829 | 0.812 | 0.632 | 0.679 | 0.597 | 0.614 | 0.631 | 0.68 | 0.542 | 0.509 | 0.415 | 0.439 | 0.748 | 0.646 | 0.575 | 0.632 | 0.528 | 0.628 | 0.635 |
| LXF-289 | 0.752 | 0.642 | 0.69 | 0.474 | 0.99 | 1.01 | 0.923 | 0.767 | 0.208 | 0.0993 | 0.164 | 0.148 | 0.174 | 1.03 | 0.692 | 1.06 | 0.96 | 0.779 | 0.807 | 0.988 |
| NCI-H3122 | 0.536 | 0.449 | 0.332 | 0.234 | 0.76 | 0.688 | 0.46 | 0.353 | 0.762 | 0.546 | 0.386 | 0.414 | 0.231 | 0.927 | 0.82 | 0.897 | 0.715 | 0.347 | 0.523 | 0.667 |
| NCI-H23 | 0.575 | 0.362 | 0.36 | 0.205 | 0.705 | 0.585 | 0.588 | 0.432 | 0.835 | – | 0.8 | 0.732 | 0.541 | 0.304 | 0.324 | 0.268 | 0.248 | 0.217 | – | – |
| NCI-H460 | 0.465 | 0.268 | 0.318 | 0.182 | 0.476 | 0.275 | 0.217 | 0.0996 | 0.459 | 0.429 | 0.392 | 0.314 | 0.162 | 0.591 | 0.512 | 0.557 | 0.484 | 0.178 | 0.302 | 0.413 |
| LC-2-ad | 0.45 | 0.346 | 0.305 | 0.223 | 0.876 | 0.701 | 0.641 | 0.463 | 0.459 | – | 0.541 | 0.446 | 0.325 | 0.886 | 0.692 | 0.734 | 0.702 | 0.513 | – | – |
| HCC-827 | 0.859 | 0.986 | 0.951 | 0.746 | 1.04 | 0.913 | 0.819 | 0.652 | 0.296 | 0.234 | 0.311 | 0.264 | 0.288 | 0.245 | 0.211 | 0.202 | 0.203 | 0.168 | 1.02 | 0.927 |
